How the values were obtained:
[1] = In vitro assay of S9 metabolic stability, human S9; assay type: in vitro ADME; settings: for half-life at 0.1 μM: human, S9 fraction, pH 7.4
Description: (§1) 3.1.1 The Preparation of Tris/HCl(0.1 M, pH 7.4) Buffer
(§2) 12.12 g of TRIS (tris-hydroxymethyl aminomethane) was weighed, dissolved in 800 mL of water, and adjusted to pH 7.4 with HCl (2 M), and then the volume was adjusted to 1000 mL with water.
(§3) 3.1.2 The preparation of MgCl2
(§4) MgCl2 (100 mM) solution was prepared with 0.1 M Tris/HCl buffer, aliquoted and stored at −20° C. The incubation concentration of MgCl2 was 5.0 mM.
(§5) 3.1.3 The Preparation of NADPH
(§6) NADPH (10 mM) solution was prepared with 0.1 M Tris/HCl buffer, aliquoted and stored at −20° C. The incubation concentration of NADPH was 1.0 mM.
(§7) 3.1.4 The Preparation of S9
(§8) Human S9 (purchased from Reid Liver Disease Research (Shanghai) Co., Ltd.) was diluted 10 times with 0.1 M Tris/HCl and rat S9 (purchased from Reid Liver Disease Research (Shanghai) Co., Ltd.) was diluted 5 times with 0.1 M Tris/HCl, so that the incubation concentrations of human and rat S9 were equivalent to the incubation concentrations of the liver microsomes in the corresponding species (both incubation concentrations of liver microsomes in human and rats are 0.33 mg/mL).
(§9) 3.1.5 The Preparation of the Compounds to be Tested
The compound was dissolved in DMSO to obtain a stock solution at a concentration of 10 mM. The stock solution was diluted to 1 mM with DMSO and then diluted with 0.1% BSA-water to obtain a working solution at a concentration of 2 μM. In the incubation system, the working solution of 2 μM was diluted 20 times to a final concentration of 0.1 μM. The concentration of DMSO in the incubation system was ≤0.01%.
3.1.6 The Preparation of the Positive Control Compound
2 mM VIVID stock solution (purchased from Shanghai Beili Biotechnology Co., Ltd.) was diluted 50 times with the 2 μM working solution for the compounds to be tested. In the incubation system, the mixed working solution of VIVID and the compounds to be tested were diluted 20 times
S9 was incubated in a 96-well plate and each incubation system was 450 μL. […]

[2] = In vitro assay of S9 metabolic stability, rat S9; assay type: in vitro ADME; settings: S9 fraction, pH 7.4; rat S9, NADPH addition, 0.1 μM compound, 37° C.
Description: as §1, §2, §3, §4, §5, §6, §7, §8, §9
The compound was dissolved in DMSO to obtain a stock solution at a concentration of 10 mM. The stock solution was diluted to 1 mM with DMSO and then diluted with 0.1% BSA-water to obtain a working solution at a concentration of 2 μM. […]

[3] = target: T1, Lp-PLA2 (rabbit serum as the source of enzyme) (Oryctolagus cuniculus, UniProt G1SE06); test: In vitro inhibitory activity on Lp-PLA2, rabbit serum as the source of enzyme (2-thio-PAF/DTNB); assay type: biochemical; settings: read-out: Inhibitory ratio, % on Lp-PLA2 (rabbit serum as the source of enzyme)
T1 construct: Rabbit Serum as the Source of Enzyme; from tissue; host or cells: rabbit serum
T1 sequence (G1SE06 22-423): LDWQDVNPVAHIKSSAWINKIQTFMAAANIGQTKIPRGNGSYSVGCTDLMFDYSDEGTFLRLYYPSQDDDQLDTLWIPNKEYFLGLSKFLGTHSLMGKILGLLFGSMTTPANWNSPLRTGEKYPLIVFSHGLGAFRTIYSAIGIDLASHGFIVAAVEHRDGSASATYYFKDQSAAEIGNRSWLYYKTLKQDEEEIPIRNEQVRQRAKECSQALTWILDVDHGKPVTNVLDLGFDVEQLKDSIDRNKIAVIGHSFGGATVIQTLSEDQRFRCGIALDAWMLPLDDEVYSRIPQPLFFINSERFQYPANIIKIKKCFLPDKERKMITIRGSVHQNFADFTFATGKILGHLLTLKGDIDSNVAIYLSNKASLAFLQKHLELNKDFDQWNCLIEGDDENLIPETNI
Description: (§10) 0.1M Tris-HCl, 1 mM EGTA, PH 7.2
(§11) Anhydrous ethanol was used as solvent to make a 25 mg/ml mother liquor. The solution was aliquoted, stored at −80° C. and diluted 900 times before use (about 50 μM of concentration)
(§12) 3) DTNB (5,5′-dithio-bis-(2-nitrobenzoic acid), Sigma, Lot D8130)
(§13) The solution was prepared just before use.
(§14) 4) Compound was dissolved in DMSO to a suitable concentration.
(§15) Lp-PLA2 activity was determined by using 2-thio-PAF as substrate. The thiol group produced upon the hydrolysis of 2-thio-PAF can react with DTNB to generate a yellow substance. The optical density at 414 nm can be detected to reflect Lp-PLA2 activity.
1.1 Determination of the Inhibitory Activity of the Compounds on Lp-PLA2 (Rabbit Serum as the Source of Enzyme) (In Vitro)
1) The corresponding reagents were added according to Table 1 and mixed uniformly by shaking.
(§16) 2) 10 μL of DTNB was added to each well.
(§17) 3) 150 μL of 2-thio-PAF was added to each well and shaken for 15 s on a microplate reader to mix the liquid in the well uniformly.

[4] = system: Lp-PLA2 (rat serum as the source of enzyme); test: In vitro inhibitory activity on Lp-PLA2, rat serum as the source of enzyme (2-thio-PAF/DTNB); assay type: biochemical
Description: as §10, §11, §12, §13, §14, §15
1.3 Determination of the Inhibitory Activity of the Compounds on Lp-PLA2 (Rat Serum as the Source of Enzyme (In Vitro)
1) The corresponding reagents were added according to Table 5 and mixed uniformly by shaking.
as §16, §17

[5] = target: T2, Lp-PLA2 (human recombinant enzyme as the source of enzyme) (Homo sapiens, UniProt Q13093); test: In vitro inhibitory activity on Lp-PLA2, human recombinant enzyme (2-thio-PAF/DTNB); assay type: biochemical; settings: read-out: inhibitory ratio, % on Lp-PLA2 (human recombinant enzyme as the source of enzyme)
T2 sequence (Q13093 22-441): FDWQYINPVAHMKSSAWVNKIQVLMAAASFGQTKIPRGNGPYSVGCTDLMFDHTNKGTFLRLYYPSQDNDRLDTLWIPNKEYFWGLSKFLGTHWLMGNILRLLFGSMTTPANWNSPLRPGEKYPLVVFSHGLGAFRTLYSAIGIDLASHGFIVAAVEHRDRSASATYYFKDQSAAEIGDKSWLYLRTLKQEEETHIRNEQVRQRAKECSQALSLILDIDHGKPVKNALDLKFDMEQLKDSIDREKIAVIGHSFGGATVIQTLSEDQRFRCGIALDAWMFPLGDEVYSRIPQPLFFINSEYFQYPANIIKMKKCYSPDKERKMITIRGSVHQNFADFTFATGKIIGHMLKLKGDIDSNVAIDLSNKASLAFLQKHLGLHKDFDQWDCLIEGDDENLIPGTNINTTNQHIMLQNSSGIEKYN
Description: as §10, §11, §12, §13, §14, §15
1.2 Determination of the Inhibitory Activity of the Compounds on Lp-PLA2 (Human Recombinant Enzyme as the Source of Enzyme) (In Vitro)
1) The corresponding reagents were added according to Table 3 and mixed uniformly by shaking.
as §16, §17

[6] = system: Lp-PLA2 in serum of SD rats; test: In vivo inhibition assay of Lp-PLA2 activity in SD rats, single administration; design: species or system rat; settings: 50 mg/kg oral, serum 1-24 h
Description: Each group had 5 SD rats and 50 mg/kg test agents was administrated orally to the rats. […] Blood was collected from the orbits of the rats at 0 h before administration and at 1 h, 3 h, 5 h, 7 h and 24 h after administration and placed at room temperature for 30 minutes before centrifugation. Serum was collected and the Lp-PLA2 activity in serum was measured.

[7] = 10 nM compound, — = no inhibitory activity

Compound | half-life at 0.1 μM [1] | half-life at 0.1 μM [2] | metabolism stability (in words) ([1]; statement covers human and rat S9) | inhibition at 0.01 µM [3, 7] | inhibition at 0.1 µM ([3]; 100 nM compound) | inhibitory ratio, % on Lp-PLA2 (rat serum as the source of enzyme) [4, 7] | inhibitory ratio, % on Lp-PLA2 (rat serum as the source of enzyme) ([4]; 100 nM compound) | inhibition at 0.01 µM ([5]; 10 nM compound) | inhibition at 0.1 µM ([5]; 100 nM compound) | activity of Lp-PLA2 in serum of the SD rats after a single administration [6]
COc1cc(OCc2cc(F)c(Oc3ccc(Cl)c(C(F)(F)F)c3)c(F)c2)nc(=O)n1C [Example 65, 4-((4-(4-chloro-3-(trifluoromethyl)phenoxy)-3,5-difluorobenzyl)oxy)-6-methoxy-1-methylpyrimidin-2(1H)-one] | 7.08 h | 2.68 h | – | – | – | – | – | – | – | –
Cn1cc(-c2cc(OCc3cc(F)c(Oc4ccc(Cl)c(C(F)(F)F)c4)c(F)c3)nc(=O)n2C)cn1 [Example 21, 4-((4-(4-chloro-3-(trifluoromethyl)phenoxy)-3,5-difluorobenzyl)oxy)-1-methyl-6-(1-methyl-1H-pyrazolyl-4)pyrimidin-2(1H)-one] | > 1 h | 195 h | superior metabolism stability | 33.2% | 65.4% | 27.65% | 82.48% | 82.8% | 90.1% | –
COc1cc(OCc2ccc(Oc3ccc(Cl)c(C(F)(F)F)c3)c(F)c2)nc(=O)n1C [Example 66, 4-((4-(4-chloro-3-(trifluoromethyl)phenoxy)-3-fluorobenzyl)oxy)-6-methoxy-1-methylpyrimidin-2(1H)-one] | – | – | – | – | – | – | – | – | – | comparable to darapladib

Reference: US10280146B2, “Pyrimidone compounds used as Lp-PLA2 inhibitors and pharmaceutical compositions thereof” (Shanghai Institute of Materia Medica, Chinese Academy of …, priority 2014, dated 2019)
